According to paper PMC6025957, “Epidermal LysM receptor ensures robust symbiotic signalling in Lotus japonicus” (eLife, 2018):

Columns and labels:
NFR1 kinase domain = target: T1, NFR1 kinase domain (Lotus japonicus, UniProt Q70KR7); assay: radioactive kinase assay, autoradiogram; assay type: biochemical; conditions: labelled compound ([gamma-32P]ATP); 100 µM ATP, MnCl2, MgCl2, HEPES pH 7, room temperature; NFR5 kinase domain as acceptor
T1 construct: intracellular kinase domain, pET-32 Ek/LIC, E. coli Rosetta 2, tag cleaved with TEV
T1 sequence (Q70KR7 254-623 limits assumed): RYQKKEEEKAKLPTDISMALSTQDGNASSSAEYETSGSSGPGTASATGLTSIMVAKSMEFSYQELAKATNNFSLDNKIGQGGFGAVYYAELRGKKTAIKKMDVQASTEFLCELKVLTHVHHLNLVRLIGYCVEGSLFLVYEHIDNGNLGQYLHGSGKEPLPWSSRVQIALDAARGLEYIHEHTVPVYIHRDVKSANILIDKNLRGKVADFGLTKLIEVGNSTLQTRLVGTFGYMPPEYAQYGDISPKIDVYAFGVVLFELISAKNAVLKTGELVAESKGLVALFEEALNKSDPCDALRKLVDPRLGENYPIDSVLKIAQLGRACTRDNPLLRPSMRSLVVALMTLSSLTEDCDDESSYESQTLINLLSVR

NFRe kinase domain = target: T2, NFRe kinase domain (Lotus japonicus, UniProt A8WHB6); assay: radioactive kinase assay, autoradiogram; assay type: biochemical; conditions: labelled compound ([gamma-32P]ATP); 100 µM ATP, MnCl2, MgCl2, HEPES pH 7, room temperature; autophosphorylation, myelin basic protein or NFR5 kinase domain as acceptor
T2 construct: gene nfr1c

AtCERK1 ectodomain = target: T3, AtCERK1 ectodomain (Arabidopsis thaliana, UniProt A8R7E6); assay: biolayer interferometry, steady-state; assay type: binding; conditions: labelled compound; biotinylated (GlcNAc)5 immobilised on streptavidin sensor, protein in solution; PBS pH 7.4, 500 mM NaCl, 0.01% Tween20
T3 construct: gene CERK1; ectodomain only (borders from reported crystal structure), gp67 signal peptide, C-terminal His6, Sf9 insect cells, glycosylated, ~35 kDa
T3 sequence (A8R7E6 24-232 limits assumed): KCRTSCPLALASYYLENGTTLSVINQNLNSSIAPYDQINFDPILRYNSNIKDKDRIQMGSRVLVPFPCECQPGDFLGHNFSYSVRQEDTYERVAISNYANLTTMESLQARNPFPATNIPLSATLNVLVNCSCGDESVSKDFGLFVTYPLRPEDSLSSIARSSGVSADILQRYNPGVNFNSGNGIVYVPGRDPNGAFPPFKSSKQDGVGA

T2 sequence (A8WHB6 entry or part of it): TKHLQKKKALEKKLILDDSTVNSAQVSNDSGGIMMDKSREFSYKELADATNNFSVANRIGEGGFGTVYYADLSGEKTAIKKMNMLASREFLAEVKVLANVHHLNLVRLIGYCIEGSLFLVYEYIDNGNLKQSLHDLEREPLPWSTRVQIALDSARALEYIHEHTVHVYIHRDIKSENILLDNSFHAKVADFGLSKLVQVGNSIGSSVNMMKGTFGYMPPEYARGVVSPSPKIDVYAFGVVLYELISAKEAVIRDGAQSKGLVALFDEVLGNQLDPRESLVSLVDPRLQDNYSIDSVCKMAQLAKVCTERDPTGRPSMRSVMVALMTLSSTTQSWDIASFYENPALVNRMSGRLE

Row | Compound | radioactive kinase assay, autoradiogram (NFR1 kinase domain) | radioactive kinase assay, autoradiogram (NFRe kinase domain) | Kd (AtCERK1 ectodomain)
1 | Nc1ncnc2c1ncn2[C@@H]1O[C@H](COP(=O)(O)OP(=O)(O)OP(=O)(O)O)[C@@H](O)[C@H]1O [ATP] | NFR1 kinase serves as positive control for NFR5 kinase transphosphorylation | NFRe kinase transphosphorylated the myelin basic protein (MBP) substrate and autophosphorylated | 
2 | CC(=O)N[C@@H]1[C@@H](O)[C@H](O[C@@H]2O[C@H](CO)[C@@H](O[C@@H]3O[C@H](CO)[C@@H](O[C@@H]4O[C@H](CO)[C@@H](O[C@@H]5O[C@H](CO)[C@@H](O)[C@H](O)[C@H]5NC(C)=O)[C@H](O)[C@H]4NC(C)=O)[C@H](O)[C@H]3NC(C)=O)[C@H](O)[C@H]2NC(C)=O)[C@@H](CO)O[C@H]1O [CO5] |  |  | 59 µM
